AC40 data for 31 molecules are collected here from PubChem BioAssay AID624405 (Broad Institute, 2012).

Results filed as inconclusive are left out.

The assay deals with C2C12 myotubes + simvastatin, ATP luminescence, 48 h. Put plainly: rescue of simvastatin-induced ATP loss – cell-based, C2C12 myotubes, ATP luminescence, cherry pick, dose response (AID 624405).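 Further: myotubes are challenged with simvastatin at 10 µM to lower ATP.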

As to `COc1ccc(S(=O)(=O)Nc2ccc3c(c2)OCCO3)cc1Cl`, the AC40 is 1.46 µM.

Turning to `Cc1nc(-c2cccc(S(=O)(=O)N3CC(C)OC(C)C3)c2)cs1` (stereo unspecified), the AC40 is 18.3 µM.

On to `CCS(=O)(=O)c1ncc(Cl)c(C(=O)Nc2ccc(C)cc2)n1`, for which the AC40 is 2.8 µM.

`COc1ccc(N2CCN(C(=O)c3ccc4c(c3)CCN4S(=O)(=O)c3ccccc3)CC2)cc1`: the AC40 was 16.2 µM.

For `C[C@H](CO)N1C[C@H](C)[C@@H](CN(C)Cc2ccc(C(F)(F)F)cc2)Oc2ccc(NS(=O)(=O)c3ccc(F)cc3)cc2CC1=O`, the AC40 is 18.2 µM.

As for `CCCC(c1nnnn1Cc1ccc(OC)cc1)N1CCN(c2ccccc2)CC1` (stereo unspecified), the AC40 was 5.18 µM.

Turning to `C[C@@H]1CN([C@@H](C)CO)C(=O)c2cc(NC(=O)Nc3cccc4ccccc34)ccc2O[C@H]1CN(C)Cc1ccc(C(=O)Nc2ccccc2N)cc1`, the AC40 is 15.2 µM.

With `C[C@H](CO)N1C[C@H](C)[C@H](CN(C)C(=O)Nc2ccc(F)cc2)Oc2ncc(C#Cc3ccc(C(F)(F)F)cc3)cc2C1=O`, the AC40 was 13.5 µM.

On to `COc1ccccc1-c1noc(-c2cccs2)n1`, for which the AC40 was 0.575 µM.

In the case of `Cc1cc2c3c(c1)C1(SCC(=O)N1c1ccc(F)cc1)C(=O)N3C(C)(C)CC2C` (stereo unspecified), the AC40 is 4.82 µM.

Regarding `CCCCNc1oc(-c2cccs2)nc1S(=O)(=O)c1ccccc1`, the AC40 was 7.73 µM.

Turning to `COc1ccc(-n2c(C)cc(C=O)c2C)cc1Cl`, the AC40 was 9.14 µM.

As for `CCOC(=O)n1c(=O)n(Cc2c(Cl)cccc2Cl)c2ccccc21`, the AC40 was 7.14 µM.

In the case of `CCC(C(=O)NC1CCCC1)N(C(=O)Cn1nnc(-c2ccc(OC)c(OC)c2)n1)c1cccc(O)c1` (stereo unspecified), the AC40 is 8.39 µM.

On to `Cc1nn(Cc2ccccc2Cl)c2sc(C(=O)NCc3ccc4c(c3)OCO4)cc12`, for which the AC40 was 12.5 µM.

As to `COc1ccc(S(=O)(=O)N(C)C[C@H]2Oc3c(NC(=O)Nc4ccc(F)cc4)cccc3C(=O)N([C@@H](C)CO)C[C@H]2C)cc1`, the AC40 is 14.5 µM.

Regarding `C[C@@H]1CN([C@H](C)CO)C(=O)c2cccc(NC(=O)Nc3ccc4c(c3)OCO4)c2O[C@H]1CN(C)Cc1ccc(C(=O)Nc2ccccc2N)cc1`, the AC40 is 0.893 µM.

For `CCSC1(SCC)N=C(N)C2(C#N)C(c3ccc(F)cc3)C12C#N` (stereo unspecified), the AC40 is 6.36 µM.

As for `Cc1ccc(-c2nnc(CSc3nnc(COc4cccc5ccccc45)n3-c3ccccc3)o2)cc1`, the AC40 is 18.2 µM.

Regarding `C[C@@H]1CN([C@H](C)CO)C(=O)Cc2cc(NS(=O)(=O)c3cn(C)cn3)ccc2O[C@@H]1CN(C)Cc1ccc(Cl)c(Cl)c1`, the AC40 is 2.69 µM.

Take `C[C@H](CO)N1C[C@H](C)[C@H](CN(C)Cc2ccccc2)Oc2ccc(NC(=O)CCCCCC(=O)Nc3ccccc3N)cc2CC1=O`: the AC40 was 10.1 µM.

For the molecule `Cc1ccc(S(=O)(=O)Nc2ccc3c(c2)C(=O)N([C@H](C)CO)C[C@H](C)[C@H](CN(C)Cc2ccc(C(=O)Nc4ccccc4N)cc2)O3)cc1`, the AC40 was 17 µM.

Regarding `C/C=C/Cn1c(SCc2ccccc2)nc2c1c(=O)[nH]c(=O)n2C`, the AC40 is 0.556 µM.

On to `C[C@H]1CN([C@@H](C)CO)S(=O)(=O)c2ccc(-c3cccc(F)c3)cc2O[C@@H]1CN(C)S(=O)(=O)c1ccc(F)cc1`, for which the AC40 was 15.5 µM.

For the molecule `C[C@H]1CN([C@@H](C)CO)C(=O)Cc2cc(NS(=O)(=O)c3ccc(F)cc3)ccc2O[C@@H]1CN(C)Cc1ccc(Cl)c(Cl)c1`, the AC40 was 15.8 µM.

Turning to `CCOc1[nH]n(-c2ccccc2)c(=O)c1C=Nc1ccc(Cl)cc1`, the AC40 is 11.9 µM.

In the case of `C[C@H]1CN([C@@H](C)CO)C(=O)Cc2cc(NS(=O)(=O)c3ccc(Cl)cc3)ccc2O[C@@H]1CN(C)CC1CCCCC1`, the AC40 is 15.1 µM.

Take `NC1=NC(=Nc2ccccc2)c2ccccc21`: the AC40 was 16.3 µM.

Turning to `COc1ccc(S(=O)(=O)Nc2ccc3c(c2)CC(=O)N([C@H](C)CO)C[C@H](C)[C@@H](CN(C)Cc2ccc(Cl)c(Cl)c2)O3)cc1`, the AC40 is 15.9 µM.

In the case of `Cc1noc2ncnc(Sc3ccc(Cl)cc3)c12`, the AC40 is 3.11 µM.

Turning to `CC(=O)c1c(C(C)=O)c(C)n(Cc2ccc(Cl)cc2)c1C`, the AC40 was 16.9 µM.
